Test results: ChEMBL document CHEMBL2046376, “Synthesis and antimicrobial activity of amide derivatives of polyether antibiotic-salinomycin” (2012)
Values after ≈ are worked out from the molar mass of the structure shown. Active and inactive are the calls of the source. The rule behind the calls is not given here.

Legend:
Format in all cases: functional
Candida parapsilosis = test: Antifungal activity against Candida parapsilosis ATCC 22019 after 24 hrs by twofold serial agar dilution technique
[1] = test system: Staphylococcus epidermidis; test: Antibacterial activity against Staphylococcus epidermidis ATCC 35984 after 18 hrs by twofold serial agar dilution technique; conditions: ATCC 35984, 18 h
Staphylococcus aureus [2] = test: Antibacterial activity against Staphylococcus aureus ATCC 29213 assessed as zone of inhibition at 400 ug/disc after 18 hrs by disc diffusion method; conditions: ATCC 29213, 18 h, read-out: DIZ
Staphylococcus aureus [3] = test: Antibacterial activity against hospital-acquired methicillin-resistant Staphylococcus aureus 481/11 after 18 hrs by twofold serial agar dilution technique; conditions: 481/11, 18 h
[4] = test system: Staphylococcus epidermidis; test: Antibacterial activity against Staphylococcus epidermidis ATCC 12228 assessed as zone of inhibition at 400 ug/disc after 18 hrs by disc diffusion method; conditions: ATCC 12228, 18 h, read-out: DIZ
Proteus vulgaris = test: Antibacterial activity against Proteus vulgaris NCTC 4635 after 18 hrs by twofold serial agar dilution technique
Staphylococcus aureus [5] = test: Antibacterial activity against Staphylococcus aureus ATCC 6538 assessed as zone of inhibition at 400 ug/disc after 18 hrs by disc diffusion method; conditions: ATCC 6538, 18 h, read-out: DIZ
Staphylococcus aureus [6] = test: Antibacterial activity against Staphylococcus aureus NCTC 4163 assessed as zone of inhibition at 400 ug/disc after 18 hrs by disc diffusion method; conditions: NCTC 4163, 18 h, read-out: DIZ
[7] = test system: Staphylococcus epidermidis; test: Antibacterial activity against Staphylococcus epidermidis ATCC 12228 after 18 hrs by twofold serial agar dilution technique; conditions: ATCC 12228, 18 h
Staphylococcus aureus [8] = test: Antibacterial activity against hospital-acquired methicillin-sensitive Staphylococcus aureus 447/11 after 18 hrs by twofold serial agar dilution technique; conditions: 447/11, 18 h
Staphylococcus aureus [9] = test: Antibacterial activity against Staphylococcus aureus NCTC 4163 after 18 hrs by twofold serial agar dilution technique; conditions: NCTC 4163, 18 h
Staphylococcus aureus [10] = test: Antibacterial activity against hospital-acquired methicillin-sensitive Staphylococcus aureus 440/11 after 18 hrs by twofold serial agar dilution technique; conditions: 440/11, 18 h
Staphylococcus aureus [11] = test: Antibacterial activity against hospital-acquired methicillin-resistant Staphylococcus aureus 400/10 after 18 hrs by twofold serial agar dilution technique; conditions: 400/10, 18 h
Pseudomonas aeruginosa [12] = test: Antibacterial activity against Pseudomonas aeruginosa ATCC 27853 after 18 hrs by twofold serial agar dilution technique
Staphylococcus aureus [13] = test: Antibacterial activity against hospital-acquired methicillin-sensitive Staphylococcus aureus 444/11 after 18 hrs by twofold serial agar dilution technique; conditions: 444/11, 18 h
[14] = test system: Staphylococcus epidermidis; test: Antibacterial activity against Staphylococcus epidermidis ATCC 35984 assessed as zone of inhibition at 400 ug/disc after 18 hrs by disc diffusion method; conditions: ATCC 35984, 18 h, read-out: DIZ
[15] = test system: Bordetella bronchiseptica; test: Antibacterial activity against Bordetella bronchiseptica ATCC 4617 after 18 hrs by twofold serial agar dilution technique
Staphylococcus aureus [16] = test: Antibacterial activity against Staphylococcus aureus ATCC 25923 after 18 hrs by twofold serial agar dilution technique; conditions: ATCC 25923, 18 h
Staphylococcus aureus [17] = test: Antibacterial activity against hospital-acquired methicillin-sensitive Staphylococcus aureus 443/11 after 18 hrs by twofold serial agar dilution technique; conditions: 443/11, 18 h
Staphylococcus aureus [18] = test: Antibacterial activity against hospital-acquired methicillin-sensitive Staphylococcus aureus 441/11 after 18 hrs by twofold serial agar dilution technique; conditions: 441/11, 18 h
Staphylococcus aureus [19] = test: Antibacterial activity against hospital-acquired methicillin-sensitive Staphylococcus aureus 446/11 after 18 hrs by twofold serial agar dilution technique; conditions: 446/11, 18 h
Staphylococcus aureus [20] = test: Antibacterial activity against hospital-acquired methicillin-resistant Staphylococcus aureus 451/11 after 18 hrs by twofold serial agar dilution technique; conditions: 451/11, 18 h
Staphylococcus aureus [21] = test: Antibacterial activity against hospital-acquired methicillin-resistant Staphylococcus aureus 399/10 after 18 hrs by twofold serial agar dilution technique; conditions: 399/10, 18 h
Staphylococcus aureus [22] = test: Antibacterial activity against hospital-acquired methicillin-sensitive Staphylococcus aureus 442/11 after 18 hrs by twofold serial agar dilution technique; conditions: 442/11, 18 h
Staphylococcus aureus [23] = test: Antibacterial activity against hospital-acquired methicillin-sensitive Staphylococcus aureus 448/11 after 18 hrs by twofold serial agar dilution technique; conditions: 448/11, 18 h
Staphylococcus aureus [24] = test: Antibacterial activity against hospital-acquired methicillin-sensitive Staphylococcus aureus 449/11 after 18 hrs by twofold serial agar dilution technique; conditions: 449/11, 18 h
Staphylococcus aureus [25] = test: Antibacterial activity against hospital-acquired methicillin-sensitive Staphylococcus aureus 445/11 after 18 hrs by twofold serial agar dilution technique; conditions: 445/11, 18 h
Escherichia coli [26] = test: Antibacterial activity against Escherichia coli ATCC 25922 after 18 hrs by twofold serial agar dilution technique
Pseudomonas aeruginosa [27] = test: Antibacterial activity against Pseudomonas aeruginosa ATCC 15442 after 18 hrs by twofold serial agar dilution technique
Staphylococcus aureus [28] = test: Antibacterial activity against hospital-acquired methicillin-resistant Staphylococcus aureus 452/11 after 18 hrs by twofold serial agar dilution technique; conditions: 452/11, 18 h
Pseudomonas aeruginosa [29] = test: Antibacterial activity against Pseudomonas aeruginosa NCTC 6749 after 18 hrs by twofold serial agar dilution technique
Staphylococcus aureus [30] = test: Antibacterial activity against hospital-acquired methicillin-resistant Staphylococcus aureus 393/10 after 18 hrs by twofold serial agar dilution technique; conditions: 393/10, 18 h
Escherichia coli [31] = test: Antibacterial activity against Escherichia coli NCTC 8196 after 18 hrs by twofold serial agar dilution technique
Escherichia coli [32] = test: Antibacterial activity against Escherichia coli ATCC 10538 after 18 hrs by twofold serial agar dilution technique
Staphylococcus aureus [33] = test: Antibacterial activity against Staphylococcus aureus ATCC 25923 assessed as zone of inhibition at 400 ug/disc after 18 hrs by disc diffusion method; conditions: ATCC 25923, 18 h, read-out: DIZ
Staphylococcus aureus [34] = test: Antibacterial activity against hospital-acquired methicillin-resistant Staphylococcus aureus 482/11 after 18 hrs by twofold serial agar dilution technique; conditions: 482/11, 18 h
Staphylococcus aureus [35] = test: Antibacterial activity against hospital-acquired methicillin-resistant Staphylococcus aureus 394/10 after 18 hrs by twofold serial agar dilution technique; conditions: 394/10, 18 h
Candida albicans [36] = test: Antifungal activity against Candida albicans ATCC 90028 after 24 hrs by twofold serial agar dilution technique
Staphylococcus aureus [37] = test: Antibacterial activity against hospital-acquired methicillin-resistant Staphylococcus aureus 450/11 after 18 hrs by twofold serial agar dilution technique; conditions: 450/11, 18 h
Staphylococcus aureus [38] = test: Antibacterial activity against hospital-acquired methicillin-resistant Staphylococcus aureus 401/10 after 18 hrs by twofold serial agar dilution technique; conditions: 401/10, 18 h
Staphylococcus aureus [39] = test: Antibacterial activity against Staphylococcus aureus ATCC 6538 after 18 hrs by twofold serial agar dilution technique; conditions: ATCC 6538, 18 h
Candida albicans [40] = test: Antifungal activity against Candida albicans ATCC 10231 after 24 hrs by twofold serial agar dilution technique
Staphylococcus aureus [41] = test: Antibacterial activity against Staphylococcus aureus ATCC 29213 after 18 hrs by twofold serial agar dilution technique; conditions: ATCC 29213, 18 h

CC[C@@H](C(=O)[C@@H](C)[C@@H](O)[C@H](C)[C@@H]1O[C@@H]([C@@H](CC)C(=O)NCCCN2CCCCC2)CC[C@@H]1C)[C@H]1O[C@]2(C=C[C@@H](O)[C@]3(CC[C@@](C)([C@H]4CC[C@](O)(CC)[C@H](C)O4)O3)O2)[C@H](C)C[C@@H]1C
Activity (Candida parapsilosis): inactive
MIC [1]: 256 µg/mL (≈ 292 µM)
zone of inhibition at 400 µg/disc (Staphylococcus aureus [2]): 11 mm
MIC (Staphylococcus aureus [3]): 64 µg/mL (≈ 73.1 µM)
zone of inhibition at 400 µg/disc [4]: 11 mm
Activity (Proteus vulgaris): inactive
zone of inhibition at 400 µg/disc (Staphylococcus aureus [5]): 13 mm
zone of inhibition at 400 µg/disc (Staphylococcus aureus [6]): 12 mm
MIC [7]: 128 µg/mL (≈ 146 µM)
MIC (Staphylococcus aureus [8]): 32 µg/mL (≈ 36.6 µM)
MIC (Staphylococcus aureus [9]): 128 µg/mL (≈ 146 µM)
MIC (Staphylococcus aureus [10]): 32 µg/mL (≈ 36.6 µM)
MIC (Staphylococcus aureus [11]): 64 µg/mL (≈ 73.1 µM)
Activity (Pseudomonas aeruginosa [12]): inactive
MIC (Staphylococcus aureus [13]): 32 µg/mL (≈ 36.6 µM)
zone of inhibition at 400 µg/disc [14]: 11 mm
Activity [15]: inactive
MIC (Staphylococcus aureus [16]): 128 µg/mL (≈ 146 µM)
MIC (Staphylococcus aureus [17]): 32 µg/mL (≈ 36.6 µM)
MIC (Staphylococcus aureus [18]): 64 µg/mL (≈ 73.1 µM)
MIC (Staphylococcus aureus [19]): 64 µg/mL (≈ 73.1 µM)
MIC (Staphylococcus aureus [20]): 32 µg/mL (≈ 36.6 µM)
MIC (Staphylococcus aureus [21]): 64 µg/mL (≈ 73.1 µM)
MIC (Staphylococcus aureus [22]): 32 µg/mL (≈ 36.6 µM)
MIC (Staphylococcus aureus [23]): 32 µg/mL (≈ 36.6 µM)
MIC (Staphylococcus aureus [24]): 32 µg/mL (≈ 36.6 µM)
MIC (Staphylococcus aureus [25]): 32 µg/mL (≈ 36.6 µM)
Activity (Escherichia coli [26]): inactive
Activity (Pseudomonas aeruginosa [27]): inactive
MIC (Staphylococcus aureus [28]): 32 µg/mL (≈ 36.6 µM)
Activity (Pseudomonas aeruginosa [29]): inactive
MIC (Staphylococcus aureus [30]): 64 µg/mL (≈ 73.1 µM)
Activity (Escherichia coli [31]): inactive
Activity (Escherichia coli [32]): inactive
zone of inhibition at 400 µg/disc (Staphylococcus aureus [33]): 11 mm
MIC (Staphylococcus aureus [34]): 64 µg/mL (≈ 73.1 µM)
MIC (Staphylococcus aureus [35]): 64 µg/mL (≈ 73.1 µM)
Activity (Candida albicans [36]): inactive
MIC (Staphylococcus aureus [37]): 64 µg/mL (≈ 73.1 µM)
MIC (Staphylococcus aureus [38]): 64 µg/mL (≈ 73.1 µM)
MIC (Staphylococcus aureus [39]): 128 µg/mL (≈ 146 µM)
Activity (Candida albicans [40]): inactive
MIC (Staphylococcus aureus [41]): 128 µg/mL (≈ 146 µM)

CC[C@@]1([C@@H]2O[C@@H]([C@H]3O[C@@](O)(CO)[C@H](C)C[C@@H]3C)C[C@@H]2C)CC[C@H]([C@]2(C)CC[C@]3(C[C@H](O)[C@@H](C)[C@@H]([C@@H](C)[C@@H](OC)[C@H](C)C(=O)O)O3)O2)O1 [MONENSIN]
MIC (Staphylococcus aureus [3]): 2 µg/mL (≈ 2.98 µM)
MIC (Staphylococcus aureus [8]): 2 µg/mL (≈ 2.98 µM)
MIC (Staphylococcus aureus [10]): 2 µg/mL (≈ 2.98 µM)
MIC (Staphylococcus aureus [11]): 2 µg/mL (≈ 2.98 µM)
MIC (Staphylococcus aureus [13]): 4 µg/mL (≈ 5.96 µM)
MIC (Staphylococcus aureus [17]): 4 µg/mL (≈ 5.96 µM)
MIC (Staphylococcus aureus [18]): 4 µg/mL (≈ 5.96 µM)
MIC (Staphylococcus aureus [19]): 2 µg/mL (≈ 2.98 µM)
MIC (Staphylococcus aureus [20]): 4 µg/mL (≈ 5.96 µM)
MIC (Staphylococcus aureus [21]): 2 µg/mL (≈ 2.98 µM)
MIC (Staphylococcus aureus [22]): 2 µg/mL (≈ 2.98 µM)
MIC (Staphylococcus aureus [23]): 2 µg/mL (≈ 2.98 µM)
MIC (Staphylococcus aureus [24]): 2 µg/mL (≈ 2.98 µM)
MIC (Staphylococcus aureus [25]): 2 µg/mL (≈ 2.98 µM)
MIC (Staphylococcus aureus [28]): 2 µg/mL (≈ 2.98 µM)
MIC (Staphylococcus aureus [30]): 4 µg/mL (≈ 5.96 µM)
MIC (Staphylococcus aureus [34]): 2 µg/mL (≈ 2.98 µM)
MIC (Staphylococcus aureus [35]): 4 µg/mL (≈ 5.96 µM)
MIC (Staphylococcus aureus [37]): 2 µg/mL (≈ 2.98 µM)
MIC (Staphylococcus aureus [38]): 2 µg/mL (≈ 2.98 µM)
